According to patent publication US9849102B2, “Treatment for reducing inflammation” (ISIFER AB, priority 2010, dated 2017):
“Also recorded” adds a separate entry of the source.

Columns and labels:
Type in all cases: cell-based, human
MCP-1 = assay: ELISA of MCP-1 production from endometriosis cells incubated with lidocaine
Description: (§1) During laparotomy, human endometriosis tissue biopsies from endometriosis cysts were obtained from four women during laparotomy. The tissue samples were handled aseptically, transported to the laboratory and frozen in fluid nitrogen to −150° C. The biopsies were later verified histologically as endometriosis tissue. The sampling procedure was approved by the Ethical Committee. The frozen endometriosis tissues were thawed in water at +37° C. and then transferred to test tubes. Two tissue biopsy samples were taken from each endometrioma and prepared as follows: the endometriosis tissue covering the inside of endometriosis cysts was detached from encapsulating fibrous tissue by gentle scraping with a knife. The tissue was then exposed for 0.2% collagenase Type III (Worthington Biochemical Corporation Freehold, N.J., USA) for 2 h. The cell suspension was then centrifuged at 1500 rpm for 10 min. The cells were re-suspended in RPMI 1640 cell culture medium with L-glutamine and phenol red (Invitrogen Ltd), 20% Foetal Bovine serum (Invitrogen Ltd), sodium pyruvate, MEM 100 mM (Invitrogen Ltd), non-essential amino acids (Invitrogen Ltd), heparin 90 μg/ml (Sigma-Aldrich Fine Chemicals St Louis, Mo., USA), penicillin-streptomycin with 10.000 Units/ml penicillin G sodium and 10.000 μg/ml streptomycin sulphate in 0.85% saline (Invitrogen Ltd), Hepes buffer solution 1M (Invitrogen Ltd) and seeded in T-75 cm^2 cell culture flasks (Nunc, Roskilde, Denmark) pre-coated with 0.2% gelatin (Sigma-Aldrich). The culture medium was changed the following day and thereafter once a week. When confluent monolayers were obtained after 3 weeks, the cultures were tryptinized cultures from passages 4 and 6 were frozen in fluid nitrogen to −150° C. and later used for experiments.
(§2) The lidocaine treatments of the cells were performed in duplicates on the endometriosis cells that were used for experiments. […] The production of MCP-1, TNF-α and […] was measured according to the manufacturer's using an enzyme-linked immunosorbent assay (ELISA, Quantikine, R&D Systems, Minneapolis, Minn. 55413, USA).

TNF-α = assay: ELISA of TNF-α production from endometriosis cells incubated with lidocaine
Description: as §1, §2

IL-1β = assay: ELISA of IL-1β in cell medium of endometriosis cells incubated with lidocaine
Description: as §1, §2

[1] = incubation with lidocaine 1 mg/ml, 24 and 48 h, versus control

Structure (SMILES): CCN(CC)CC(=O)Nc1c(C)cccc1C [Lidocaine]
- MCP-1 in Lidocaine medium 24 h (MCP-1; human endometriosis cell culture medium, lidocaine hydrochloride 1 mg/ml, 24 h, control medium 24 h 145.0): 62.0 pg/mL
- MCP-1 in Lidocaine medium 48 h (MCP-1; human endometriosis cell culture medium, lidocaine hydrochloride 1 mg/ml, 48 h, control medium 48 h 315.0): 122.0 pg/mL
- MCP-1 production from endometriosis cells (in words) (MCP-1; [1]): substantial reduction; also recorded: seems to be reduced
- TNF-α in Lidocaine medium 24 h (TNF-α; human endometriosis cell culture medium, lidocaine hydrochloride 1 mg/ml, 24 h, control medium 24 h 8.2): 9.4 pg/mL
- TNF-α in Lidocaine medium 48 h (TNF-α; human endometriosis cell culture medium, lidocaine hydrochloride 1 mg/ml, 48 h, control medium 48 h 10.5): 10.0 pg/mL
- production of TNF-α from endometriosis cells (in words) (TNF-α; [1]): unaffected
- concentration of IL-1β in the cell medium (in words) (IL-1β; before and after incubation with lidocaine): at a low level
- IL-1β in Lidocaine medium 24 h (IL-1β; human endometriosis cell culture medium, lidocaine hydrochloride 1 mg/ml, 24 h, control medium 24 h <5.00): <5.00 pg/mL
- IL-1β in Lidocaine medium 48 h (IL-1β; human endometriosis cell culture medium, lidocaine hydrochloride 1 mg/ml, 48 h, control medium 48 h <5.00): <5.00 pg/mL
